Source: PMC7307930, “Stereoselective Activity of 1-Propargyl-4-styrylpiperidine-like Analogues That Can Discriminate between Monoamine Oxidase Isoforms A and B” (Journal of Medicinal Chemistry, 2020)
“Also recorded” adds a separate entry of the source.

Columns and labels:
Swiss mice [1] = experiment: Elevated plus maze test; format: in vivo, mouse
Swiss mice [2] = experiment: Tail suspension test; format: in vivo, mouse; conditions: for immobility time, acute treatment: ip 30 min before, 6, 67 at 3 and 10 mg/kg, 69 at 1, 3, 10, 30 mg/kg, imipramine 30 mg/kg
Protocol: The antidepressant-like activity was screened with the widely used tail suspension test. At 30 min before the behavioral assays, the mice were treated with 6, 67, and 69 at 3 mg/kg and 10 mg/kg ip, with 69 also at 1 mg/kg and 30 mg/kg ip, or were injected with 0.9% saline as control. Imipramine (30 mg/kg ip) was used as the reference drug.
(A) Effects of acute ip treatment with 6 (3, 10 mg/kg, n = 13, 9), 67 (3, 10 mg/kg, n = 6, 10), and 69 (1, 3, 10, 30 mg/kg, n = 8, 7, 8, 6) and imipramine (30 mg/kg, n = 8) in the tail suspension test. […] (B) Effects of acute ip treatment with 6 (3, 10 mg/kg, n = 8, 8), 67 (1, 3, 6 mg/kg; n = 5, 5, 5), and 69 (1, 3, 6 mg/kg, n = 10, 5, 5) on locomotor activity of the mice. […] (C) Effects of 10-day chronic ip treatment with 69 (0.3 mg/kg, daily; n = 10) in the tail suspension test. Data are mean values ± SEM of the immobility time, compared to control mice (n = 8): ∗∗, p < 0.01 (unpaired t-test). […]
quality control sample every seven test samples. The absolute matrix effect was checked by comparing the analyte responses in the standard solutions to the samples spiked in the tissue incubation medium from the control experiment without the analyte, and a deviation of less than ±20% was deemed acceptable.
4.2.10In vitro radioligand binding assay
Rats were humanely killed by decapitation and their brains were removed, washed and rapidly dissected on ice. Homogenisation was performed using a homogeniser (PRO Scientific Inc) at 30,000 rpm for 1 min. For 5-HT1A binding assays, the cortex tissues were homogenised in 30 volumes/weight ice-cold 50 mM Tris–HCl buffer (pH 7.4), and the homogenate was centrifuged at 40,000× g for 15 min at 0 °C to 4 °C. The resulting pellets were resuspended in 30 volumes/weight of the same buffer, and incubated at 37 °C for 20 min. The centrifugation step was repeated twice under the same conditions as described above, and the final pellets were resuspended in 30 volumes/weight 50 mM Tris–HCl buffer (pH 7.4), and stored at –80 […]
For the [3H]-8-OH-DPAT binding assay (the 5-HT1A receptor binding assay), the membranes were thawed and resuspended in 50 mM Tris–HCl (pH 7.4) with 1 mM MnCl2, to a final protein concentration of 0.5 mg/mL. The incubation was carried out at 25 °C for 1 h in a final volume of 1 mL membrane suspension in the presence of the sample assayed and with 0.2 nM [3H]-8-OH-DPAT (170.2 Ci/mmol). Serotonin was used as the positive control. Non-specific binding was determined in parallel incubations in the presence of serotonin (10 μM).
4.2.11 Tail suspension test
The tail suspension test was carried out according to the methodology proposed by Steru and co-workers.22 The mice were individually suspended by the tail from a metal hook (distance

5-HT1A receptor = biological target: T1, 5-HT1A receptor (Rattus norvegicus, UniProt P19327); experiment: [3H]-8-OH-DPAT radioligand binding assay, rat cortex membranes; conditions: for Ki: [3H]-8-OH-DPAT binding, means ±SEM; for inhibition at 300 µM: read-out: Inhibition at 300 µM
T1 construct: from tissue; host or cells: rat (male Wistar) brain cortex membranes
T1 sequence (P19327 1-422): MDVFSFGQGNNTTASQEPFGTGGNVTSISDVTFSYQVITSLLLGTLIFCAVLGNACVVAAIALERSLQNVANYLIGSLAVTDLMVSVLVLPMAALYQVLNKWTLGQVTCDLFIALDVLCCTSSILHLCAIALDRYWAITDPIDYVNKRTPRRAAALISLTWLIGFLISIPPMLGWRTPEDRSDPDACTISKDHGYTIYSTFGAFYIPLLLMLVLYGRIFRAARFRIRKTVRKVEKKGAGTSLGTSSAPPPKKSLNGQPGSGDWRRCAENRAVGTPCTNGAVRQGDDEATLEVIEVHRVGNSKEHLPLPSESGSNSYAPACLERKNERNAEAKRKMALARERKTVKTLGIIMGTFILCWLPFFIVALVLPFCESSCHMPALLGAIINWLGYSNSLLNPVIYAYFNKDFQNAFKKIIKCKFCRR

SH-SY5Y cells = experiment: MTS cytotoxicity assay; conditions: 24 h, 5 μM and 10 μM
[3] = Thermodynamic solubility in PBS; format: physicochemical; conditions: PBS (pH 7.4), 37 °C, 24 h, hydrochloride salts
Swiss mice [4] = experiment: Locomotor activity test; format: in vivo, mouse
[5] = In vitro permeability, rat intestine in diffusion chambers; format: in vitro ADME
[6] = Chemical stability and photoisomerization by proton NMR in D2O; format: physicochemical; conditions: hydrochloride salts, more than 1 year at room temperature protected from sunlight, 1H NMR in D2O
Protocol: Possible chemical instability and photoisomerization of E/Z isomers were also addressed as these are known liabilities of stilbene derivatives.[23] Proton NMRs of 69 (cis derivative), 84 (trans derivative), and 100 (ethyl analogue) in the form of hydrochloride salts were recorded in D2O (Figures S1–S3). […] The samples dissolved in the NMR tubes were then left on the benchtop exposed to natural daylight for 7 days, which could induce photoisomerization. […] Altogether, these studies imply reasonable stability of the compounds.
Figure S2. […] Compound 84 (trans isomer, […]
hydrochloride salt) was dissolved in D2O and the spectra were recorded at time 0 h, 1 h, 24 h and 7 days. Sample was exposed to day light in between the measurement, which could induce photoisomerization and potentially also chemical degradation.
The sample was previously stored at […]

MAO-A/B = experiment: In vitro MAO inhibition in mouse brain homogenate, p-tyramine substrate; format: biochemical
Swiss mice [7] = experiment: Body mass and survival during 10-day treatment; format: in vivo; conditions: 0.3 mg/kg ip daily
Protocol: Figure S9. In vivo effects of chronic treatment on body mass. Body mass variation (Percent weight) (mean ±SEM) in mice throughout the 10-day i.p. treatment with 69 (0.3 mg/kg; n = 10), 100 (0.3 mg/kg; n = 8) and saline (SAL; n = 16). Data are means ±SEM. All animals survived the treatments.

hMAO-A = biological target: T2, hMAO-A (Homo sapiens, UniProt P21397); experiment: hMAO-A inhibition, HRP–Amplex Red coupled fluorimetric assay; format: biochemical; conditions: supplement csv; RA at 100 micromolar
T2 construct: purchased Sigma Aldrich; host or cells: baculovirus-infected insect cells (BTI-TN-5B1-4)
T2 sequence (P21397 1-527): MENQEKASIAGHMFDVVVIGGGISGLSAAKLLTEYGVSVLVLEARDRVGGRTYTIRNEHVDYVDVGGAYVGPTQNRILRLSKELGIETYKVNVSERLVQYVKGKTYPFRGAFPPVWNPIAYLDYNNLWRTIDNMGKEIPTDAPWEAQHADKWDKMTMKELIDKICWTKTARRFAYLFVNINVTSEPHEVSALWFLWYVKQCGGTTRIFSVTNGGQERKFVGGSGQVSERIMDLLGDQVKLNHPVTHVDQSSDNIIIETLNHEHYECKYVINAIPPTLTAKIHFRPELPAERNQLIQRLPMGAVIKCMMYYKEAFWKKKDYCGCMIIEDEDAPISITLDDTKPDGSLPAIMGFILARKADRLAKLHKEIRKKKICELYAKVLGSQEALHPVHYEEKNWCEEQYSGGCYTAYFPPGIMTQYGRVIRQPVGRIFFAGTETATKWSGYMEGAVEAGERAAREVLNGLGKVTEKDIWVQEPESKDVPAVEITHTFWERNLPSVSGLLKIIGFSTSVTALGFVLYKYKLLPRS

Swiss mice [8] = experiment: Haloperidol-induced catalepsy test; format: in vivo, mouse; conditions: 5 mg/kg, reference drug

Structure (SMILES)	Open arm entries (%) (Swiss mice [1]; acute ip, 3 mg/kg)	Time in centre (%) (Swiss mice [1]; acute ip, 3 mg/kg)	Time in open arms (%) (Swiss mice [1]; acute ip, 3 mg/kg)	Total arm entries (Swiss mice [1]; acute ip, 3 mg/kg)	immobility time, acute treatment (Swiss mice [2])	Ki (5-HT1A receptor) [µM]	inhibition at 300 µM (5-HT1A receptor) [%]	cytotoxic effects (SH-SY5Y cells)	thermodynamic solubility [3]	Open arm entries (%) (Swiss mice [1]; acute ip, 6 mg/kg)	Time in centre (%) (Swiss mice [1]; acute ip, 6 mg/kg)	Time in open arms (%) (Swiss mice [1]; acute ip, 6 mg/kg)	Total arm entries (Swiss mice [1]; acute ip, 6 mg/kg)	chemical stability on storage [6]	also measured
C#CCN1CCC(/C=C\c2ccc(F)cc2)CC1 [Compound 6, (Z)-4-(4-Fluorostyryl)-1-(prop-2-yn-1-yl)piperidine]	10.8 ±2.6	43.5 ±2.8	9.1 ±1.9	22.0 ±1.5	significantly reduced	2.4 ± 0.6	88	no significant cytotoxic effects	at least 17.6 g/250 mL	–	–	–	–	–	increase in the proportion of open-arm entries (Swiss mice [1]; 10 mg/kg ip, vs 0.9% saline): 2.0 fold; Open arm entries (%) (Swiss mice [1]; acute ip, 10 mg/kg): 27.5 ±3.2%; Time in open arms (%) (Swiss mice [1]; acute ip, 10 mg/kg): 8.4 ±2.7%; spontaneous locomotor activity (Swiss mice [4]; acute 10 mg/kg ip): significantly decreased
C#CCN1CCC(/C=C\c2ccccc2)CC1 [Compound 67, (Z)-1-(Prop-2-yn-1-yl)-4-styrylpiperidine]	15.0 ±2.3	39.8 ±1.7	11.9 ±2.3	20.6 ±2.4	did not decrease the immobility time	0.7 ± 0.1	96	no significant cytotoxic effects	≥ 10.5 g/250 mL	15.6 ±3.4	53.1 ±5.7	5.4 ±1.0	15.4 ±0.8	–	–
C#CCN1CCC(/C=C\c2cccc(F)c2)CC1 [Compound 69, (Z)-4-(3-Fluorostyryl)-1-(prop-2-yn-1-yl)piperidine]	28.0 ±2.9	38.0 ±2.9	19.8 ±1.6	22.9 ±1.6	did not decrease the immobility time	1.7 ± 0.12	92	no significant cytotoxic effects	≥ 8.6 g/250 mL	13.3 ±1.2	41.4 ±4.1	7.1 ±1.6	20.4 ±1.3	no signs of chemical instability	Time in centre (%) (Swiss mice [1]; 10-day treatment, 0.3 mg/kg): 28.8 ±4.5%; Time in open arms (%) (Swiss mice [1]; 10-day treatment, 0.3 mg/kg): 11.8 ±3.7%; effects in the elevated plus maze, chronic low dose (Swiss mice [1]; 10-day, 0.3 mg/kg ip daily): No significant effects; Open arm entries (%) (Swiss mice [1]; acute ip, 1 mg/kg): 15.9 ±5.1%; Time in centre (%) (Swiss mice [1]; acute ip, 1 mg/kg): 36.4 ±7.7%; Total arm entries (Swiss mice [1]; acute ip, 1 mg/kg): 17.4 ±2.5; Papp A→B at 50 µM ([5]; male, Sprague-Dawley, pH 7.4, rat intestine, 50 μM donor, mean ± SEM, read-out: apparent permeability coefficient, absorptive direction): 10.8 ± 1.3 ×10⁻⁶ cm/s; Papp B→A at 50 µM ([5]; male, Sprague-Dawley, pH 7.4, rat intestine, 50 μM donor, mean ± SEM, read-out: apparent permeability coefficient, eliminatory direction): 35.4 ± 9.9 ×10⁻⁶ cm/s; permeability classification ([5]; rat intestine in vitro): intermediate/moderate permeability; immobility time, chronic treatment (Swiss mice [2]; 10-day, 0.3 mg/kg ip daily): significantly decreased the immobility time; residual activity, p-tyramine (0.5 mM), in vitro (MAO-A/B; 50 μM compound, homogenate from nontreated mice): 31.3 ± 0.2%; locomotor activity (Swiss mice [4]; 10-day treatment, 0.3 mg/kg, 5-min session): 598.3 ±14.7 counts; effects in the locomotor activity test, chronic low dose (Swiss mice [4]; 10-day, 0.3 mg/kg ip daily): No significant effects; locomotion (Swiss mice [4]; acute 3 mg/kg ip): not altered; body mass variations versus control mice (Swiss mice [7]): No significant differences
C#CCN1CCC(/C=C/c2ccc(C(F)(F)F)cc2)CC1 [Compound 84, (E)-1-(Prop-2-yn-1-yl)-4-(4-(trifluoromethyl)styryl)piperidine]	–	–	–	–	–	–	48	no significant cytotoxic effects	–	–	–	–	–	only smaller amounts of impurities were detected; also recorded: partial degradation	IC50(MAO-A) class (hMAO-A): na (na-not_active(RA_at_100micromolar>50%))
CN1[C@@H]2C[C@@H](OC(=O)[C@H](CO)c3ccccc3)C[C@H]1[C@@H]1O[C@@H]12 [Scopolamine, reference compound]	–	–	–	–	–	–	–	–	–	–	–	–	–	–	latency time to descend from the bar (Swiss mice [8]): significantly decreased the latency time
NCCc1ccc(O)cc1 [p-Tyramine, reference compound]	–	–	–	–	–	–	–	–	–	–	–	–	–	–	K0.5 (MAO-A/B; substrate of MAO A/B, control mouse brain homogenates): 0.071 ± 0.032 mM
